The source made the active and inactive calls. The rule behind the calls is not given here.
How the values were obtained:
Format in all cases: functional, organism-based
Mus musculus [1] = assay: Sedative-hypnotic activity in mouse assessed as decrease in number of square crossing at 50 mg/kg, ip administrated as single dose and measured after 30 mins by open field test
Mus musculus [2] = assay: Sedative-hypnotic activity in mouse assessed as reduction in grip strength score at 50 mg/kg, ip administrated as single dose and measured after 30 mins by grip strength test
Mus musculus [3] = assay: Sedative-hypnotic activity in mouse assessed as increase in latency time of first step out of center square at 5 mg/kg, ip administrated as single dose and measured after 30 mins by open field test

| Compound | Activity (Mus musculus [1]) | Activity (Mus musculus [2]) | Activity (Mus musculus [3]) |
| --- | --- | --- | --- |
| Cc1nc2cc(Nc3ccnc(Nc4ccc(F)c(C)c4)n3)ccc2s1 | Active | Active |  |
| CCn1c2ccccc2c2cc(Nc3ccnc(Nc4cnn(C)c4)n3)ccc21 | Active | Active |  |
| COC(=O)c1ccc(Nc2nccc(Nc3ccc4sc(C)nc4c3)n2)cc1OC | inactive | Active |  |
| CCn1c2ccccc2c2cc(Nc3ccnc(Nc4ccc(C(C)C)cc4)n3)ccc21 | Active | Active |  |
| Cc1nc2cc(Nc3ccnc(Nc4ccc5sc(C)nc5c4)n3)ccc2s1 | Active | Active |  |
| CCn1c2ccccc2c2cc(Nc3nccc(Nc4ccc5sc(C)nc5c4)n3)ccc21 | Active | Active |  |
| CCn1c2ccccc2c2cc(Nc3ccnc(Nc4ccc5c(c4)c4ccccc4n5CC)n3)ccc21 | Active | Active |  |
| Cc1nc2cc(Nc3ccnc(Nc4ccc5c(cnn5C)c4)n3)ccc2s1 | Active | Active |  |
| CCn1c2ccccc2c2cc(Nc3ccnc(Nc4ccc5nc(C)[nH]c5c4)n3)ccc21 | Active | Active |  |
| CCn1cc(Nc2nccc(Nc3ccc4c(c3)c3ccccc3n4CC)n2)cn1 | Active | Active |  |
| CN1C(=O)CN=C(c2ccccc2)c2cc(Cl)ccc21 |  |  | inactive |
| CCn1c2ccccc2c2cc(Nc3ccnc(Nc4ccc(C)cc4)n3)ccc21 | Active | Active |  |
| CCn1c2ccccc2c2cc(Nc3ccnc(Nc4ccc(F)c(C)c4)n3)ccc21 | Active | Active |  |
| CCn1c2ccccc2c2cc(Nc3ccnc(Nc4cc(OC)cc(OC)c4)n3)ccc21 | Active | Active |  |
| COc1cc(Nc2nccc(Nc3ccc4sc(C)nc4c3)n2)ccc1O | Active | Active |  |
| CCn1c2ccccc2c2cc(Nc3ccnc(Nc4ccc5[nH]c(C)cc5c4F)n3)ccc21 | Active | Active |  |
| CCn1c2ccccc2c2cc(Nc3ccnc(Nc4ccc(N5CCCCC5)cc4)n3)ccc21 | Active | Active |  |
| CCn1c2ccccc2c2cc(Nc3ccnc(Nc4ccc(C(F)(F)F)cc4)n3)ccc21 | Active | Active |  |
| Cc1nc2ccc(Nc3nccc(Nc4ccc5sc(C)nc5c4)n3)cc2[nH]1 | Active | Active |  |
| CCc1ccc(Nc2nccc(Nc3ccc4c(c3)c3ccccc3n4CC)n2)cc1 | Active | Active |  |
| CCn1c2ccccc2c2cc(Nc3ccnc(Nc4cc(C)cc(F)c4)n3)ccc21 | Active | Active |  |
| CCn1c2ccccc2c2cc(Nc3ccnc(Nc4ccc5c(cnn5C)c4)n3)ccc21 | Active | Active |  |
| Cc1cc2c(F)c(Nc3nccc(Nc4ccc5sc(C)nc5c4)n3)ccc2[nH]1 | Active | Active |  |
| CCn1c2ccccc2c2cc(Nc3ccnc(Nc4ccc(CC(C)C)cc4)n3)ccc21 | Active | Active |  |
| CCn1c2ccccc2c2cc(Nc3ccnc(Nc4ccc5sc(C)nc5c4)n3)ccc21 | Active | Active |  |

From ChEMBL document CHEMBL6121007, “Design, synthesis and evaluation of pyrimidine derivatives as sedative-hypnotic agents” (Eur J Med Chem, 2025)
